Like-named read-outs stand apart in the source and are kept apart here.
Molecular target: Human TAAR 1 (Homo sapiens, UniProt Q96RJ0)
Assay: cAMP Biotrak EIA functional assay in HEK293 cells stably expressing hTAAR1
Type: cell-based
Details: for Emax: HEK293, read-out: Max (maximal response as percentage of the maximal cAMP levels induced by p-TYR)
[1] = cAMP production in HEK293 cells stably expressing human TAAR 1 (chimera with rat TAAR 1 N-/C-terminus and 3rd intracellular loop, HA leader), means of at least three independent experiments

Chain of Human TAAR 1 (Q96RJ0 with tags, fused parts or gaps): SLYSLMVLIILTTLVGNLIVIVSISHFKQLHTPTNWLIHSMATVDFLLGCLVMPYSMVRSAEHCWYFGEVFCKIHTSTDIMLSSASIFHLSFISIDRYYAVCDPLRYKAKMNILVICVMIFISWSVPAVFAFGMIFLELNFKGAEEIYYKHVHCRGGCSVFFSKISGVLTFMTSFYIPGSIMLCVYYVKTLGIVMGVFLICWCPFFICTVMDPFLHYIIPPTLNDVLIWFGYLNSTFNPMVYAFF
Chain of Human TAAR 1 (Q923Y9 with tags, fused parts or gaps partner): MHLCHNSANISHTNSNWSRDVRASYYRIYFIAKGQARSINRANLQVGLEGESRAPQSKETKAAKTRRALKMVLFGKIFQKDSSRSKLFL

Row | Compound | Emax [%] | EC50 [1] [nM] | Max (maximal response as percentage of the maximal cAMP levels induced by p-TYR) [%] | EC50 [nM]
1 | NCCc1ccc(O)c(O)c1 [Dopamine, dopamine] | 50 |  |  | 
2 | NCCc1c[nH]cn1 [Histamine, histamine] |  | > 50000 |  | 
3 | CNCCc1ccc(O)cc1 [N-methyl-p-tyramine] |  | 2050 | 100 | 
4 | CNCCc1ccccc1 [N-methyl-β-PEA] |  | 160 | 100 | 
5 | NC[C@H](O)c1ccc(O)c(O)c1 [Norepinephrine, norepinephrine] |  | > 50000 |  | 
6 | NCC(O)c1ccc(O)cc1 (stereo not shown) [OCT, octopamine] | 100 | 10300 |  | 
7 | NCCc1c[nH]c2ccc(O)cc12 [Serotonin, 5-HT, Serotonin] |  | > 50000 |  | 
8 | NCCc1c[nH]c2ccccc12 [TRY, tryptamine] | 100 | 46900 |  | 
9 | NCCc1ccc(O)cc1 [p-TYR, p-tyramine] |  |  | 100 | 1070
10 | NCCc1ccccc1 [β-PEA, β-phenylethylamine] | 100 | 300 |  | 

— US20060009441A1, “Human trace amine associated receptors” (priority 2004, published 2006)
